Values of other authors in patent US8911765B2, “Biodegradable, polymer coverings for breast implants” (Tyrx, Inc., priority 2007, dated 2014).

Conditions: rabbit, in vivo

Compound: O=S(=O)([O-])CCS.[Na+] [Mesna, sodium 2-mercaptoethane sulfonate]
- capsule formation around implants: reduce capsule formation
